Measurements as given in the NIST ThermoML archive (doi:10.1021/je5010214).

Conditions: Liquid, Vibrating tube method

CC(C)CO [2-methyl-1-propanol]
Conditions	mass density [kg/m3]
323.15 K, 32903 kPa	805.081
323.15 K, 33102 kPa	805.154
323.15 K, 33950 kPa	805.707
323.15 K, 34958 kPa	806.425
323.15 K, 37883 kPa	808.369
323.15 K, 39891 kPa	809.68
323.15 K, 42065 kPa	811.076
323.15 K, 44846 kPa	812.852
323.15 K, 49935 kPa	815.968
323.15 K, 52064 kPa	817.249
323.15 K, 54897 kPa	818.944
323.15 K, 57818 kPa	820.634
323.15 K, 59855 kPa	821.787
323.15 K, 61856 kPa	822.928
323.15 K, 64838 kPa	824.6
323.15 K, 65957 kPa	825.209
323.16 K, 1117.8 kPa	779.897
323.16 K, 47886 kPa	814.721
328.15 K, 96.5 kPa	774.907
328.15 K, 395.8 kPa	775.157
328.15 K, 904.1 kPa	775.603
328.15 K, 1030.6 kPa	775.74
328.15 K, 2999.3 kPa	777.646
328.15 K, 5042 kPa	779.515
328.15 K, 10121 kPa	784.077
328.15 K, 11905 kPa	785.621
328.15 K, 24953 kPa	795.929
328.15 K, 27874 kPa	798.098
328.15 K, 29949 kPa	799.588
328.15 K, 31948 kPa	800.996
328.15 K, 33061 kPa	801.681
328.15 K, 34111 kPa	802.415
328.15 K, 34984 kPa	803.007
328.15 K, 37913 kPa	805.001
328.15 K, 41958 kPa	807.674
328.15 K, 44806 kPa	809.5
328.15 K, 55150 kPa	815.995
328.15 K, 58100 kPa	817.75
328.15 K, 60045 kPa	818.881
328.15 K, 62082 kPa	820.048
328.15 K, 66095 kPa	822.334
328.16 K, 515 kPa	775.262
328.16 K, 2069.7 kPa	776.794
328.16 K, 6936.7 kPa	781.257
328.16 K, 8874.2 kPa	782.985
328.16 K, 14954 kPa	788.149
328.16 K, 17891 kPa	790.513
328.16 K, 20040 kPa	792.21
328.16 K, 22054 kPa	793.773
328.16 K, 33018 kPa	801.745
328.16 K, 39966 kPa	806.346
328.16 K, 47820 kPa	811.414
328.16 K, 49817 kPa	812.637
328.16 K, 52099 kPa	814.145
328.16 K, 64955 kPa	821.692
333.15 K, 95.7 kPa	770.629
333.15 K, 913.6 kPa	771.467
333.15 K, 6965.6 kPa	777.259
333.15 K, 8937.3 kPa	779.076
333.15 K, 9995.1 kPa	780.005
333.15 K, 11970 kPa	781.72
333.15 K, 14915 kPa	784.255
333.15 K, 22033 kPa	790.027
333.15 K, 29996 kPa	796.045
333.15 K, 31986 kPa	797.49
333.15 K, 32928 kPa	798.124
333.15 K, 41792 kPa	804.162
333.15 K, 47830 kPa	808.087
333.15 K, 49895 kPa	809.38
333.15 K, 51876 kPa	810.61
333.15 K, 54830 kPa	812.44
333.15 K, 58116 kPa	814.429
333.15 K, 59975 kPa	815.509
333.15 K, 61974 kPa	816.676
333.15 K, 65057 kPa	818.467
333.15 K, 66042 kPa	819.039
333.16 K, 295.9 kPa	770.818
333.16 K, 574.5 kPa	771.11
333.16 K, 1069.5 kPa	771.621
333.16 K, 2110.6 kPa	772.649
333.16 K, 3100 kPa	773.622
333.16 K, 5034 kPa	775.464
333.16 K, 17954 kPa	786.777
333.16 K, 19985 kPa	788.397
333.16 K, 24923 kPa	792.261
333.16 K, 27922 kPa	794.514
333.16 K, 33031 kPa	798.137
333.16 K, 34001 kPa	798.837
333.16 K, 35030 kPa	799.567
333.16 K, 37925 kPa	801.558
333.16 K, 39862 kPa	802.861
333.16 K, 44782 kPa	806.126
338.15 K, 72.5 kPa	765.803
338.15 K, 267.1 kPa	766.009
338.15 K, 496.5 kPa	766.255
338.15 K, 821.3 kPa	766.6
338.15 K, 1007.7 kPa	766.796
338.15 K, 2012.4 kPa	767.824
338.15 K, 3039.1 kPa	768.845
338.15 K, 7018.5 kPa	772.739
338.15 K, 8987.6 kPa	774.596
338.15 K, 10054 kPa	775.578
338.15 K, 18105 kPa	782.627
338.15 K, 22120 kPa	785.947
338.15 K, 28029 kPa	790.565
338.15 K, 32010 kPa	793.527
338.15 K, 32776 kPa	794.103
338.15 K, 32995 kPa	794.184
338.15 K, 33922 kPa	794.869
338.15 K, 38056 kPa	797.798
338.15 K, 42127 kPa	800.629
338.15 K, 48090 kPa	804.572
338.15 K, 50121 kPa	805.906
338.15 K, 52094 kPa	807.168
338.15 K, 55116 kPa	809.055
338.15 K, 58010 kPa	810.837
338.15 K, 60191 kPa	812.149
338.15 K, 62244 kPa	813.373
338.15 K, 65243 kPa	815.143
338.15 K, 65986 kPa	815.583
338.15 K, 66355 kPa	815.805
338.16 K, 5091.1 kPa	770.879
338.16 K, 12131 kPa	777.462
338.16 K, 15171 kPa	780.113
338.16 K, 20167 kPa	784.349
338.16 K, 25290 kPa	788.465
338.16 K, 30041 kPa	792.069
338.16 K, 35102 kPa	795.7
338.16 K, 39987 kPa	799.156
338.16 K, 45109 kPa	802.623
343.15 K, 55.6 kPa	761.239
343.15 K, 101.8 kPa	761.279
343.15 K, 277.3 kPa	761.484
343.15 K, 487.7 kPa	761.699
343.15 K, 881.6 kPa	762.13
343.15 K, 1037 kPa	762.294
343.15 K, 1941.4 kPa	763.263
343.15 K, 3000.3 kPa	764.362
343.15 K, 4957 kPa	766.378
343.15 K, 6956.1 kPa	768.377
343.15 K, 8969.5 kPa	770.304
343.15 K, 10003 kPa	771.264
343.15 K, 11997 kPa	773.149
343.15 K, 14895 kPa	775.758
343.15 K, 17840 kPa	778.358
343.15 K, 20135 kPa	780.417
343.15 K, 21925 kPa	781.908
343.15 K, 24920 kPa	784.349
343.15 K, 27949 kPa	786.755
343.15 K, 29863 kPa	788.238
343.15 K, 31874 kPa	789.777
343.15 K, 32927 kPa	790.544
343.15 K, 32981 kPa	790.602
343.15 K, 34026 kPa	791.305
343.15 K, 35028 kPa	792.011
343.15 K, 38080 kPa	794.257
343.15 K, 39908 kPa	795.53
343.15 K, 41973 kPa	796.98
343.15 K, 44972 kPa	799.034
343.15 K, 47997 kPa	801.072
